Patent US5506256A, “Proline derivatives possessing prolyl endopeptidase-inhibitory activity” (Yoshitomi Pharmaceutical Industries, Ltd., priority 1990, dated 1996)

Assays:
[1] = target: T1, prolyl endopeptidase (Rattus norvegicus, UniProt O70196); experiment: Prolyl endopeptidase-inhibitory activity; format: biochemical; details: for inhibition at 0.1 µM / inhibition at 1 µM: read-out: inhibition rate, prolyl endopeptidase; for IC50: prolyl endopeptidase extracted from rat brain, pH 7.0, 30° C., read-out: IC50
T1 construct: prolyl endopeptidase extracted from rat brain; from tissue; host or cells: rat brain
T1 sequence (O70196 whole entry): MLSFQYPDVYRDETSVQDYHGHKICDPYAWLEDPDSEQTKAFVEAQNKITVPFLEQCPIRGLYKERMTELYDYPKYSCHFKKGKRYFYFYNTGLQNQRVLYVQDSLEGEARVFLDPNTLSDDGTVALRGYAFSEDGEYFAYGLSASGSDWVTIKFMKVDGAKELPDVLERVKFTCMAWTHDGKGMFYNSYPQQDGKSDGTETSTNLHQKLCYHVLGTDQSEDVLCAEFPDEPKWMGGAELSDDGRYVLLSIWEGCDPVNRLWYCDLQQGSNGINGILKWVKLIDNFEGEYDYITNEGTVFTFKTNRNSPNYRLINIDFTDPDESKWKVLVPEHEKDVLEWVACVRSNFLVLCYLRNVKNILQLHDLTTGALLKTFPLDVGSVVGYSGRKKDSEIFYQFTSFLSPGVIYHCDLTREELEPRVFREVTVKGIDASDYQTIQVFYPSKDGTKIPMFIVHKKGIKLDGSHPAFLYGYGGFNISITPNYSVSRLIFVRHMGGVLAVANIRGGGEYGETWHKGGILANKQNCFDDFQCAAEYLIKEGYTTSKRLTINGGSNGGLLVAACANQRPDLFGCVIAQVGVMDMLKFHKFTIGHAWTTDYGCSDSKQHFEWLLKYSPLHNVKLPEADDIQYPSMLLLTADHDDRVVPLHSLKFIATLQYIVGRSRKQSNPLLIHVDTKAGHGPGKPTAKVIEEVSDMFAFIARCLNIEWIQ
Description: Prolyl endopeptidase-inhibitory activity
A mixture of a 0.1M potassium sodium phosphate buffer (pH 7.0) (2675 μl), a solution of the compounds of the present invention in a 0.1M potassium sodium phosphate buffer (pH 7.0) (100 μl) and a solution of prolyl endopeptidase extracted from rat brain in a 25 mM sodium phosphate buffer (100 μl) [123 unit/1, pH 6.8, containing 1 mM dithiothreitol and 0.5 mM EDTA, prepared by the method described in J. Neurochem., 35, 527 (1980)]was preincubated at 30° C. for 30 minutes. Thereto was added a 0.2 mM solution of 7-(N-succinyl-glycyl-prolyl)-4-methylcoumarinamide (Peptide Institute, INC.) in a 0.1M potassium sodium phosphate buffer (pH 7.0) (125 μl), and the mixture was incubated at 30° C. for 1 hour. The reaction mixture was immersed in ice (0° C.) to terminate the reaction, and the fluorescence (a1) was determined ten minutes later (excitation at 370 nm and emission at 440 nm). Concurrently, there were conducted the experiment wherein, in the above system, the prolyl endopeptidase solution was substituted for a 25 mM sodium phosphate buffer (pH 6.8, containing 1 mM dithiothreitol and 0.5 mM EDTA) and the experiment wherein the solution of the compounds of the present invention was substituted for a 0.1M potassium sodium phosphate buffer (pH 7.0). Each fluorescence (a2 and a3) was determined respectively [See Tanpakushitsu Kakusan Koso, 29, 127 (1984)]. The prolyl endopeptidase-inhibition rate was calculated by the following formula, and IC50, a concentration of a compound producing 50% inhibition, was estimated by semilogarithmic graph paper. [formula] […]

[2] = target: T2, trypsin (Bos taurus, UniProt P00760); experiment: Determination of trypsin-inhibitory activity; format: biochemical, bovine; details: read-out: inhibition rate, trypsin
T2 construct: purchased Sigma; host or cells: bovine pancreas
T2 sequence (P00760 24-246): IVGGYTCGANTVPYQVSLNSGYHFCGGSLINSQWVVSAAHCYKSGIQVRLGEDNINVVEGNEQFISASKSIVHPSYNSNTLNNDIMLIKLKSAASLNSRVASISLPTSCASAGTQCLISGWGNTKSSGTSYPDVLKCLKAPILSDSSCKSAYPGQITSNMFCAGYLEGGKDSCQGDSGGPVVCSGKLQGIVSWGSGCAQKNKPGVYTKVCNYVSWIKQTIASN
Description: (§1) The methods for the measurement of inhibitory activities against various proteases and the method for calculating the inhibition rate are as follows.
Determination of trypsin-inhibitory activity
In the present invention, a 50 mM Tris-HCl buffer (pH 8.0) was employed as a buffer for measurement.
To a mixture of the above-mentioned buffer (850 μl), a solution of the compounds of the present invention in the same buffer (50 μl) and a 0.02 μM solution of trypsin (derived from bovine pancreas, Sigma) in the same buffer (50 μl) was added a 200 μM solution of 7-(prolyl-phenylaranyl-arginyl)-4-methylcoumarinamide (Peptide Institute, Inc.) in the same buffer (50 μl),and the mixture was incubated at 30° C. for 1 hour. The reaction mixture was immersed in ice (0° C.) to terminate the reaction, and the fluorescence (b1) was determined 1 hour later (excitation at 370 nm and emission at 440 nm). Concurrently, there were conducted the experiment wherein, in the system above, the trypsin solution was substituted for a buffer alone, and the experiment wherein the solution of the compounds of the present invention was substituted for a buffer above. Each fluorescence (b2 and b3) was determined respectively.
(§2) Using the fluorescence x1, x2 and x3 measured in the abovementioned manner, the inhibitory rate against various proteases was calculated by the following formula where x stands for b, c, d, e or f: [formula]

[3] = target: T3, chymotrypsin (Bos taurus, UniProt P00766); experiment: Determination of chymotrypsin-inhibitory activity; format: biochemical, bovine; details: read-out: inhibition rate, chymotrypsin
T3 construct: purchased Sigma; host or cells: bovine pancreas
Description: as §1
Determination of chymotrypsin-inhibitory activity
Similarly, by following the procedure mentioned above, but employing a 50 mM Tris-HCl buffer (pH 8.0) as a buffer for measurement, a 0.2 μM solution of chymotrypsin (derived from bovine pancreas, Sigma) in the same buffer as an enzyme solution and a […] solution of 7-(N-succinyl-leucyl-leucyl-valyl-tyrosyl)-4-methylcoumarinamide (Peptide Institute, Inc.) in the same buffer as a substrate solution, each fluorescence (c1, c2 and c3) was determined, respectively.
as §2

[4] = test system: leucine aminopeptidase; experiment: Determination of leucine aminopeptidase-inhibitory activity; format: biochemical, swine; parameters: unit not given here
Description: as §1
Determination of leucine aminopeptidase-inhibitory activity
Similarly, by following the procedure mentioned above, but employing a 50 mM Tris-HCl buffer (pH 8.0) as a buffer for measurement, a […] solution of leucine aminopeptidase (derived from swine kidney, Sigma) in the same buffer as an enzyme solution and a 200 μM solution of 7-leucyl-4-methyl-coumarinamide (Peptide Institute, Inc.) in the same buffer as a substrate solution, each fluorescence (d1, d2 and d3) was determined, respectively.
as §2

[5] = target: T4, elastase (Sus scrofa, UniProt P00772); experiment: Determination of elastase-inhibitory activity; format: biochemical, swine; details: read-out: inhibition rate, elastase
T4 construct: purchased Sigma; host or cells: swine pancreas
T4 sequence (P00772 27-266): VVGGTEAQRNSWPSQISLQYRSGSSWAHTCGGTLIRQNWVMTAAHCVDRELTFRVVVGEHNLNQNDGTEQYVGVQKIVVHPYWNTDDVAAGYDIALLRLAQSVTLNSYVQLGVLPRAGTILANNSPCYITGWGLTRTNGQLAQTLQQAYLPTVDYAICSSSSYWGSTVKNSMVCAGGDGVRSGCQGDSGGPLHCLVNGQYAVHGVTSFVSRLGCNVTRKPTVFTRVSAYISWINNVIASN
Description: as §1
Determination of elastase-inhibitory activity
Similarly, by following the procedure mentioned above, but employing a 1 mM Tris-HCl buffer (pH 8.5) as a buffer for measurement, a 0.2 μM solution of elastase (derived from swine pancreas, Sigma) in the same buffer as an enzyme solution and a 200 μM solution of 7-(N-succinyl-aranyl-prolyl-aranyl)-4-methylcoumarinamide (Peptide Institute, Inc.) in the same buffer as a substrate solution, each fluorescence (e1, e2 and e3) was determined, respectively.
as §2

[6] = target: T5, cathepsin B (Bos taurus, UniProt P07688); experiment: Determination of cathepsin B-inhibitory activity; format: biochemical, bovine; details: read-out: inhibition rate, cathepsin B
T5 construct: purchased Sigma; host or cells: bovine spleen
Description: as §1
Determination of cathepsin B-inhibitory activity
Similarly, by following the procedure mentioned above, but employing a 100 mM sodium phosphate buffer (pH 6.0; containing 1.33 mM EDTA Na2) as a buffer for measurement, a 0.02 μM solution of cathepsin B (derived from bovine spleen, Sigma) in the same buffer as an enzyme solution and a 200 μM solution of 7-(N-benzyloxycarbonyl-phenylaranyl-arginyl)-4-methylcoumarinamide (Peptide Institute, Inc.) in the same buffer as a substrate solution, each fluorescence (f1, f2 and f3) was determined, respectively.
as §2

| SMILES | inhibition at 0.1 µM [1] | IC50 [1] | inhibition at 0.1 µM [2] | inhibition at 0.1 µM [3] | inhibition rate, leucine aminopeptidase ([4]; 0.1 μM) | inhibition at 0.1 µM [5] | inhibition at 0.1 µM [6] | inhibition at 1 µM [1] | inhibition at 1 µM [2] | inhibition at 1 µM [3] | inhibition rate, leucine aminopeptidase ([4]; 1 μM) | inhibition at 1 µM [5] | inhibition at 1 µM [6] |
| --- | --- | --- | --- | --- | --- | --- | --- | --- | --- | --- | --- | --- | --- |
| O=C(COCc1ccccc1)[C@@H]1CCCN1C(=O)[C@@H]1CCCN1C(=O)NCc1ccccc1 [Compound 32] | 96% | 1 nM | 0% | 0% | 0 | 0% | 0% | – | – | – | – | – | – |
| COc1ccc(OCC(=O)[C@@H]2CCCN2C(=O)[C@@H]2CCCN2C(=O)NCc2ccccc2)cc1 [Compound 22, (2S)-1-(N-Benzylaminocarbonyl-L-prolyl)-2-(4-methoxyphenoxyacetyl)pyrrolidine] | – | 25 nM | – | – | – | – | – | 97% | 0% | 0% | 0 | 0% | 0% |
| O=C(COc1ccccn1)[C@@H]1CCCN1C(=O)[C@@H]1CCCN1C(=O)NCc1ccccc1 [Compound 54, (2S)-1-[N-(Benzylaminocarbonyl)-L-prolyl]-2-[(2-pyridyloxy)acetyl]pyrrolidine] | – | 200 nM | – | – | – | – | – | 85% | 0% | 0% | 0 | 0% | 0% |
| O=C(COc1ccccc1)[C@@H]1CCCN1C(=O)[C@@H]1CCCN1C(=O)NCc1ccccc1 [Compound 21, (2S)-1-(N-Benzylaminocarbonyl-L-prolyl)-2-(phenoxyacetyl)-pyrrolidine] | – | 15 nM | – | – | – | – | – | 99% | 0% | 0% | 0 | 0% | 0% |
| O=C(C[S@+]([O-])c1ccccc1)[C@@H]1CCCN1C(=O)[C@@H]1CCCN1C(=O)CCc1ccccc1 [Compound 17, (2S)-1-[N-(3-Phenylpropionyl)-L-prolyl]-2-{[(S)-phenylsulfinyl]acetyl}pyrrolidine] | 99% | 0.5 nM | 0% | 0% | 0 | 0% | 0% | – | – | – | – | – | – |
| O=C(COc1ccccc1)[C@@H]1CCCN1C(=O)[C@@H]1CCCN1C(=O)COc1ccccc1 [Compound 46, (2S)-2-(Phenoxyacetyl)-1-[N-(phenoxyacetyl)-L-prolyl]pyrrolidine] | – | 60 nM | – | – | – | – | – | 93% | 0% | 0% | 0 | 0% | 0% |
| CCOC(=O)[C@@H](NC(=O)N1CCC[C@H]1C(=O)N1CCC[C@H]1C(=O)COc1ccccc1)c1ccccc1 [Compound 53, (2S)-1-[N-[[(S)-α-(Ethoxycarbonyl)benzylamino]carbonyl]-L-prolyl]-2-(phenoxyacetyl)pyrrolidine] | – | 30 nM | – | – | – | – | – | 96% | 0% | 0% | 0 | 0% | 0% |
| O=C(C[S+]([O-])c1ccc([N+](=O)[O-])cc1)[C@@H]1CCCN1C(=O)[C@@H]1CCCN1C(=O)OCc1ccccc1 (stereo partly drawn) [Compound 7, (2S)-1-(N-Benzyloxycarbonyl-L-prolyl)-2-[(4-nitrophenylsulfinyl)acetyl]pyrrolidine] | 97% | 1 nM | 0% | 0% | 0 | 0% | 20% | – | – | – | – | – | – |
| COc1ccc(CNC(=O)N2CCC[C@H]2C(=O)N2CCC[C@H]2C(=O)COc2ccc(OC)cc2)cc1 [Compound 25, (2S)-1-[N-(4-Methoxybenzylaminocarbonyl)-L-prolyl]-2-(4-methoxyphenoxyacetyl)pyrrolidine] | 97% | 2.5 nM | 0% | 0% | 0 | 0% | 0% | – | – | – | – | – | – |
| CC(C)[S+]([O-])CC(=O)[C@@H]1CCCN1C(=O)[C@@H]1CCCN1C(=O)OCc1ccccc1 (stereo partly drawn) [Compound 8, (2S)-1-(N-Benzyloxycarbonyl-L-prolyl)-2-[(isopropylsulfinyl)-acetyl]pyrrolidine] | 92% | 3 nM | 0% | 0% | 0 | 0% | 0% | – | – | – | – | – | – |
| O=C(C[S@+]([O-])c1ccccc1)[C@@H]1CCCN1C(=O)[C@@H]1CCCN1C(=O)OCc1ccccc1 [Compound 9, (2S)-1-(N-Benzyloxycarbonyl-L-prolyl)-2-{[(S)-phenylsulfinyl]-acetyl}pyrrolidine] | 98% | 0.2 nM | 0% | 0% | 0 | 0% | 0% | – | – | – | – | – | – |
| COc1ccc(OCC(=O)[C@@H]2CCCN2C(=O)[C@@H]2CCCN2C(=O)OCc2ccccc2)cc1 [Compound 18, (2S)-1-(N-Benzyloxycarbonyl-L-prolyl)-2-[(4-methoxyphenoxy)-acetyl]pyrrolidine] | 93% | 1.5 nM | 0% | 0% | 0 | 0% | 0% | – | – | – | – | – | – |
